# Tests used:
# [1] = biological target: T1, SGLT-2 (Homo sapiens, UniProt P31639); experiment: [14C]-AMG absorption in stable SGLT2 expressing Flp-in CHO cells (SGLT-2 activity screening assay); assay type: cell-based; details: 14C-AMG uptake, 37° C. 1 h, 1% DMSO
# T1 sequence (P31639 1-672): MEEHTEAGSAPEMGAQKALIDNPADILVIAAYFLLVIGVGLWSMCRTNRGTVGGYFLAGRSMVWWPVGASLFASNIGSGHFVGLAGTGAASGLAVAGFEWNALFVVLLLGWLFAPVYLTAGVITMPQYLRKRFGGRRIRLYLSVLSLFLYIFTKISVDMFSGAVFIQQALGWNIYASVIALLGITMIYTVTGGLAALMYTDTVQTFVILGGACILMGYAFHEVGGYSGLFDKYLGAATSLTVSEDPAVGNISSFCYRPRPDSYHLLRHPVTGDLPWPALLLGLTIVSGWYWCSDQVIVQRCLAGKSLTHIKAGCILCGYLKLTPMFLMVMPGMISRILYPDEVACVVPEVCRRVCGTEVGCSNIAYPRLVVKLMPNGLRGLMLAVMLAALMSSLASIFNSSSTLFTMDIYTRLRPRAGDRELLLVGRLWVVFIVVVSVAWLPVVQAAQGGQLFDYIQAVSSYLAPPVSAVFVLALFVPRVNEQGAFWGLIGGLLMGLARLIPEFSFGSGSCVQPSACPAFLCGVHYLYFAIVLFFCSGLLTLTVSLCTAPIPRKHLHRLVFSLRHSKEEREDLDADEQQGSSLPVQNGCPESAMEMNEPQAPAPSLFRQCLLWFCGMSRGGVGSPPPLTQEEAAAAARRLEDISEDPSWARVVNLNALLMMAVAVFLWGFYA
# Description: (§1) Example 1: [^14C]-AMG Absorption in Stable SGLT1 and SGLT2 Expressing Flp-in CHO Cells (SGLT-1 and SGLT-2 Activity Screening Assay)
# (§2) SGLT-1 and SGLT-2 cDNA clones were purchased from OriGene. After sequencing verification, the expression vectors were constructed based on pcDNA5/FRT using conventional molecular biology method. The expression vector was transfected into Flp-in CHO cells using Lipofectamin 2000. The transfected cells were subject hygromycin selection. The single clones of cells were selected by serial dilutions 4-5 weeks after transfection. The expression of SGLT-1 ? SGLT-2 were confirmed by RT-PCR and functional assay and cell line with strong signal was selected for subsequent study.
# (§3) Culture of stable SGLT-1 and SGLT-2 expressing Flp-in CHO cell line: the culture media contain F12 medium (Invitrogen), 500 μg/ml hygromycin (Calbiochem) and 10% FBS (Invitrogen). Upon 80% confluency, the cells in the T75 flask were washed three times with PBS (Invitrogen), and 5 mL of Trpsin-EDTA solution (Invitrogen) was then added. The flask was gently rotated so that all the cells were submerged in the digestion solution. After the cells detach, 10 mL of culture medium was added and single cell suspension was prepared by pipetting up and down. The cell concentration was adjusted to 3×10^5/mL, 100 μL/well was added onto clear bottom 96-well plate (Corning).
# (§4) The cells were ready for absorption assay once they attached after overnight culture. 12 h after cell plating, the cells were washed once with 150 μL/well absorption solution KRH-NMG (120 mM NMG, 4.7 mM KCl, 1.2 mM MgCl2, 2.2 mM CaCl2, 10 mM HEPES, pH 7.4 1 mM Tris). The solution was then removed from the well. 2.5 μCi/mL ^14C labeled AMG (PerkinElmer) Buffer KRH-Na+ (120 mM NaCl, 4.7 mM KCl, 1.2 mM MgCl2, 2.2 mM CaCl2, 10 mM HEPES, pH 7.4 1 mM Tris) was added at […] after washing with Buffer KRH-Na+ and KRH-NMG. The corresponding compound I was immediately added at 5 μL/well, ensuring the concentration of Dimethyl Sulfoxide was 1% (v/v). The plate was subsequently incubated at 37° C. for 1 h, after which 150 μL of ice cold wash buffer (120 mM NaCl, 4.7 mM KCl, 1.2 mM MgCl2, 2.2 mM CaCl2, 10 mM HEPES, 0.5 mM phlorizin, pH 7.4 1 mM Tris) was immediately added to terminate the reaction. Each well was washed three times with wash buffer and finally the solution was removed. Caution was taken to avoid cell detachment during the procedure. 20 μL/well of Lysis Buffer (0.1 mM NaOH) was added, the plate was vortexed at 900 rpm for 5 min. 80 μL/well of scintillation solution Microsint40 was added, and vortexed at 900 rpm for 5 min. The radioactivity was assayed using MicroBeta Trilux (PerkinElmer). The data was analyzed and IC50 of the compounds was calculated using XL-fit software.
# [2] = biological target: T2, SGLT-1 (Homo sapiens, UniProt P13866); experiment: [14C]-AMG absorption in stable SGLT1 expressing Flp-in CHO cells (SGLT-1 activity screening assay); assay type: cell-based; details: 14C-AMG uptake, 37° C. 1 h, 1% DMSO
# T2 sequence (P13866 1-664): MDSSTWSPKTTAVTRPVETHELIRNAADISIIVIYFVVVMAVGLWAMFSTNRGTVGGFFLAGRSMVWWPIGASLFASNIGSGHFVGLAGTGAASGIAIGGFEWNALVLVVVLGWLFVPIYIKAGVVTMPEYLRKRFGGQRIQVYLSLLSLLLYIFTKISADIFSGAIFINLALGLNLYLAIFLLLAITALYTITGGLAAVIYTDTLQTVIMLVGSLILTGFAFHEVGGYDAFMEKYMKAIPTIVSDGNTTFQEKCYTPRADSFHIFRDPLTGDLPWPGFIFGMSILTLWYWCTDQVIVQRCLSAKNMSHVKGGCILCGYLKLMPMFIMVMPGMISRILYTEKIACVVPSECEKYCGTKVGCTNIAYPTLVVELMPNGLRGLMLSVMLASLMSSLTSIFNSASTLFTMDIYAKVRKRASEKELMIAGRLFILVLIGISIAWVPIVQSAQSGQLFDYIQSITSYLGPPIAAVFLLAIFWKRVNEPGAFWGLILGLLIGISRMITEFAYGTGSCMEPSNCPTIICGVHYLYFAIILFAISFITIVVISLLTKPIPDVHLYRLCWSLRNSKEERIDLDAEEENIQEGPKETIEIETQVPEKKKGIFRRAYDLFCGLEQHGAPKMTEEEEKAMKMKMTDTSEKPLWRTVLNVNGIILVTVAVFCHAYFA
# Description: as §1, §2, §3, §4
Structure (SMILES),IC50 [1] [nM],IC50 [2] [nM]
"OC[C@H]1O[C@@H](c2ccc(Cl)c(Cc3ccc(OCC4Cc5cccc(F)c5O4)cc3)c2)[C@H](O)[C@@H](O)[C@@H]1O (stereo partly drawn) [Compound I-34, (2S,3R,4R,5S,6R)-2-(4-chloro-3-(4-((7-fluoro-2,3-dihydrobenzofuran-2-yl)methoxy)benzyl)phenyl)-6-(hydroxymethyl)tetrahydro-2H-pyran-3,4,5-triol]",4.5,141
"Cc1ccc([C@@H]2O[C@H](CO)[C@@H](O)[C@H](O)[C@H]2O)cc1Cc1ccc(OCc2cc3ccccc3o2)cc1 [Compound I-3, (2S,3R,4R,5S,6R)-2-(3-(4-(benzofuran-2-ylmethoxy)benzyl)-4-methylphenyl)-6-(hydroxymethyl)tetrahydro-2H-pyran-3,4,5-triol]",5.6,320
"OC[C@H]1O[C@@H](c2ccc(Cl)c(Cc3ccc(OCC4Cc5ccccc5O4)c(F)c3)c2)[C@H](O)[C@@H](O)[C@@H]1O (stereo partly drawn) [Compound I-12, (2S,3R,4R,5S,6R)-2-(4-chloro-3-(4-((2,3-dihydrobenzofuran-2-yl)methoxy)-3-fluorobenzyl)phenyl)-6-(hydroxymethyl)tetrahydro-2H-pyran-3,4,5-triol]",11,1070
"Cc1ccc([C@@H]2O[C@H](CO)[C@@H](O)[C@H](O)[C@H]2O)cc1Cc1ccc(OCC2OCc3ccccc32)cc1 (stereo partly drawn) [Compound I-43, (2S,3R,4R,5S,6R)-2-(3-(4-((1,3-dihydroisobenzofuran-1-yl)methoxy)benzyl)-4-methylphenyl)-6-(hydroxymethyl)tetrahydro-2H-pyran-3,4,5-triol]",1.7,322
"OC[C@H]1O[C@@H](c2ccc(Cl)c(Cc3ccc(OC[C@H]4OCc5ccccc54)cc3)c2)[C@H](O)[C@@H](O)[C@@H]1O [Compound I-37, (2S,3R,4R,5S,6R)-2-(4-chloro-3-(4-(((S)-1,3-dihydroisobenzofuran-1-yl)methoxy)benzyl)phenyl)-6-(hydroxymethyl)tetrahydro-2H-pyran-3,4,5-triol]",2,615
"CC1(COc2ccc(Cc3cc([C@@H]4O[C@H](CO)[C@@H](O)[C@H](O)[C@H]4O)ccc3Cl)cc2)Cc2ccccc2O1 (single isomer, unassigned) [Compound I-107]",> 2000,31400
"OC[C@H]1O[C@@H](c2ccc(Cl)c(Cc3ccc(OC[C@@H]4Cc5ccccc5O4)cc3)c2)[C@H](O)[C@@H](O)[C@@H]1O [Compound I-23, (2S,3R,4R,5S,6R)-2-(4-chloro-3-(4-(((S)-2,3-dihydrobenzofuran-2-yl)methoxy)benzyl)phenyl)-6-(hydroxymethyl)tetrahydro-2H-pyran-3,4,5-triol]",3,301

# Second part, the molecule after the results:
IC50 [1] [nM],IC50 [2] [nM],Structure (SMILES)
4.3,396,"Cc1ccc([C@@H]2O[C@H](CO)[C@@H](O)[C@H](O)[C@H]2O)cc1Cc1ccc(OCC2Cc3ccccc3O2)cc1 (single isomer, unassigned) [Compound I-27]"
38,–,"OC[C@H]1O[C@@H](c2ccc(Cl)c(Cc3ccc(OCCC4Cc5ccccc5O4)cc3)c2)[C@H](O)[C@@H](O)[C@@H]1O (stereo partly drawn) [Compound I-60, (2S,3R,4R,5S,6R)-2-(4-chloro-3-(4-(2-(2,3-dihydrobenzofuran-2-yl)ethoxy)benzyl)phenyl)-6-(hydroxymethyl)tetrahydro-2H-pyran-3,4,5-triol]"
> 2000,34400,"Cc1ccc([C@@H]2O[C@H](CO)[C@@H](O)[C@H](O)[C@H]2O)cc1Cc1ccc(OCC2(C)Cc3ccccc3O2)cc1 (single isomer, unassigned) [Compound I-111]"
8,179,"Cc1ccc([C@@H]2O[C@H](CO)[C@@H](O)[C@H](O)[C@H]2O)cc1Cc1ccc(OCC2(C)OCc3ccccc32)cc1 (stereo partly drawn) [Compound I-112, (2S,3R,4R,5S,6R)-2-(3-(4-((1-methyl-1,3-dihydroisobenzofuran-1-yl)methoxy)benzyl)-4-methylphenyl)-6-(hydroxymethyl)tetrahydro-2H-pyran-3,4,5-triol]"
> 2000,41400,"N#Cc1ccc([C@@H]2O[C@H](CO)[C@@H](O)[C@H](O)[C@H]2O)cc1Cc1ccc(OCC2Cc3ccccc3O2)cc1 (stereo partly drawn) [Compound I-28, 2-(4-((2,3-dihydrobenzofuran-2-yl)methoxy)benzyl)-4-((2S,3R,4R,5S,6R)-3,4,5-trihydroxy-6-(hydroxymethyl)tetrahydro-2H-pyran-2-yl)benzonitrile]"
18.2,700,"CC1(COc2ccc(Cc3cc([C@@H]4O[C@H](CO)[C@@H](O)[C@H](O)[C@H]4O)ccc3Cl)cc2)Cc2ccccc2O1 (single isomer, unassigned) [Compound I-106]"
6.5,365,"OC[C@H]1O[C@@H](c2ccc(Cl)c(Cc3ccc(OCC4Cc5c(F)cccc5O4)cc3)c2)[C@H](O)[C@@H](O)[C@@H]1O (stereo partly drawn) [Compound I-31, (2S,3R,4R,5S,6R)-2-(4-chloro-3-(4-((4-fluoro-2,3-dihydrobenzofuran-2-yl)methoxy)benzyl)phenyl)-6-(hydroxymethyl)tetrahydro-2H-pyran-3,4,5-triol]"
23,2540,"OC[C@H]1O[C@@H](c2ccc(Cl)c(Cc3ccc(OCc4cc5ccccc5o4)c(F)c3)c2)[C@H](O)[C@@H](O)[C@@H]1O [Compound I-11, (2S,3R,4R,5S,6R)-2-(3-(4-(benzofuran-2-ylmethoxy)-3-fluorobenzyl)-4-chlorophenyl)-6-(hydroxymethyl)tetrahydro-2H-pyran-3,4,5-triol]"
36,–,"OC[C@H]1O[C@@H](c2cccc(Cc3ccc(OCc4cc5ccccc5o4)cc3)c2)[C@H](O)[C@@H](O)[C@@H]1O [Compound I-6, (2S,3R,4R,5S,6R)-2-(3-(4-(benzofuran-2-ylmethoxy)benzyl)phenyl)-6-(hydroxymethyl)tetrahydro-2H-pyran-3,4,5-triol]"
5.6,–,"CC1(C)OC(COc2ccc(Cc3cc([C@@H]4O[C@H](CO)[C@@H](O)[C@H](O)[C@H]4O)ccc3Cl)cc2)c2ccccc21 (stereo partly drawn) [Compound I-63, (2S,3R,4R,5S,6R)-2-(4-chloro-3-(4-((3,3-dimethyl-1,3-dihydroisobenzofuran-1-yl)methoxy)benzyl)phenyl)-6-(hydroxymethyl)tetrahydro-2H-pyran-3,4,5-triol]"
